≈ marks a conversion by molar mass, not a printed value.
Columns and labels:
Type in all cases: cell-based
[1] = tested on: Mycoplasma gallisepticum; experiment: Antimicrobial test, conventional agar plate dilution method, Mycoplasma gallisepticum; conditions: Mycoplasmoides gallisepticum, read-out: Minimum Inhibitory Concentration, Mycoplasma gallisepticum
Description: (§1) ANTIMICROBIAL TEST AGAINST THREE STRAINS OF MYCOPLASMA
(§2) The test was effected by a conventional agar plate dilution method using the indicated strains of mycoplasma. The dithiocarbamic acid derivatives as shown below with Compound Nos. were employed in the test.

[2] = tested on: Mycoplasma pulmonis; experiment: Antimicrobial test, conventional agar plate dilution method, Mycoplasma pulmonis; conditions: Mycoplasma, read-out: Minimum Inhibitory Concentration, Mycoplasma pulmonis
Description: as §1, §2

[3] = tested on: Mycoplasma hyorhinis; experiment: Antimicrobial test, conventional agar plate dilution method, Mycoplasma hyorhinis; conditions: Mycoplasma, read-out: Minimum Inhibitory Concentration, Mycoplasma hyorhinis
Description: as §1, §2

| Structure (SMILES) | MIC [1] [µg/mL] | MIC [2] [µg/mL] | MIC [3] [µg/mL] |
| --- | --- | --- | --- |
| CC1=C(C=CC(=O)CCSC(=S)N(C)C)C(C)(C)CCC1 [compound 146, 2-[β-(2,6,6-Trimethylcyclohexene-1-yl)acryloyl]-ethyl dimethyldithiocarbamate] | 0.39 (≈ 1.2 µM) | 0.39 (≈ 1.2 µM) | 0.39 (≈ 1.2 µM) |
| O=C(CCSC(=S)N1CCOCC1)c1ccccc1O [compound 42, 2-(o-Hydroxybenzoyl)ethyl 4-morpholinecarbodithioate] | 0.2 (≈ 0.642 µM) | 0.2 (≈ 0.642 µM) | 0.39 (≈ 1.25 µM) |
| Cc1cc(CSC(=S)N(C)C)cc(C)c1O [compound 183, 4-Hydroxy-3,5-dimethylbenzyl dimethyldithiocarbamate] | 0.2 (≈ 0.783 µM) | 0.2 (≈ 0.783 µM) | 0.2 (≈ 0.783 µM) |
| CN(C)C(=S)SCc1cc(C(C)(C)C)c(O)c(C(C)(C)C)c1 [compound 211, 4-Hydroxy-3,5-di-t-butylbenzyl dimethyldithio carbamate] | 0.78 (≈ 2.3 µM) | 0.78 (≈ 2.3 µM) | 0.39 (≈ 1.15 µM) |
| CCN(CC)C(=S)SCc1cc(CO)cc(OC)c1O [compound 242, 2-Hydroxy-3-methoxy-5-hydroxymethylbenzyl diethyldithiocarbamate] | 0.1 (≈ 0.317 µM) | 0.1 (≈ 0.317 µM) | 0.1 (≈ 0.317 µM) |
| CCC(=O)CCSC(=S)N1CCOCC1 [compound 101, 2-Propionylethyl 4-morphonlinecarbodithioate] | 0.1 (≈ 0.404 µM) | 0.1 (≈ 0.404 µM) | 0.1 (≈ 0.404 µM) |
| CCN(CC)C(=S)SCc1cc(C(C)(C)C)c(O)c(C(C)(C)C)c1 [compound 212, 4-Hydroxy-3,5-di-t-butylbenzyl diethyldithiocarbamate] | 1.56 (≈ 4.24 µM) | 1.56 (≈ 4.24 µM) | 1.56 (≈ 4.24 µM) |
| O=C(CCSC(=S)N1CCOCC1)c1ccccc1[N+](=O)[O-] [compound 61, 2-(o-Nitrobenzoyl)ethyl 4-morpholinecarbodithioate] | 0.1 (≈ 0.294 µM) | 0.39 (≈ 1.15 µM) | 1.56 (≈ 4.58 µM) |
| CN(C)C(=S)SCCC(=O)C(C)(C)C [compound 108, 2-Pivaroylethyl dimethyldithiocarbamate] | 0.2 (≈ 0.857 µM) | 0.2 (≈ 0.857 µM) | 0.2 (≈ 0.857 µM) |
| CN(C)C(=S)SCc1cc(Cl)c(O)c(Cl)c1 [compound 232, 4-Hydroxy-3,5-dichlorobenzyl dimethyldithiocarbamate] | 0.39 (≈ 1.32 µM) | 0.39 (≈ 1.32 µM) | 0.2 (≈ 0.675 µM) |
| CCN(CC)C(=S)SCCC(=O)C=Cc1ccc(C)cc1 [compound 142, 2-(p-Methylcinnamoyl)ethyl diethyldithiocarbamate] | 0.2 (≈ 0.622 µM) | 0.2 (≈ 0.622 µM) | 0.2 (≈ 0.622 µM) |
| CCN(CC)C(=S)SCc1cc(CN(C)C)c(O)c(C(C)(C)C)c1 [compound 241, 4-Hydroxy-3-dimethylaminomethyl-5-t-butylbenzyl diethyldithiocarbamate] | 0.78 (≈ 2.12 µM) | 0.39 (≈ 1.06 µM) | 0.39 (≈ 1.06 µM) |
| Oc1c(Cl)cc(CSC(=S)N2CCCCC2)cc1Cl [compound 234, 4-Hydroxy-3,5-dichlorobenzyl 1-piperidinecarbodithioate] | 3.13 (≈ 9.31 µM) | 3.13 (≈ 9.31 µM) | 1.56 (≈ 4.64 µM) |
| CN(C)C(=S)SCCC(=O)CCc1ccccc1 [compound 123, 2-Hydrocinnamoylethyl dimethyldithiocarbamate] | 0.2 (≈ 0.711 µM) | 0.2 (≈ 0.711 µM) | 0.2 (≈ 0.711 µM) |
| O=c1cc(CO)oc(CSC(=S)N2CCCCC2)c1O [compound 261, 5-Hydroxy-2-hydroxymethyl-4-oxo-4H-pyran-6-ylmethyl-1-piperidinecarbodithioate] | 3.13 (≈ 9.92 µM) | 3.13 (≈ 9.92 µM) | 3.13 (≈ 9.92 µM) |
| CC(=O)CCSC(=S)N(C)Cc1ccccc1 [compound 82, 2-Acetylethyl benzylmethyldithiocarbamate] | 0.2 (≈ 0.748 µM) | 0.2 (≈ 0.748 µM) | 0.2 (≈ 0.748 µM) |
| Cc1cc(O)c(CSC(=S)N(C)C)cc1CSC(=S)N(C)C [compound 247, 4-Hydroxy-5-dimethylthiocarbamoylthiomethyl-2-methylbenzyl dimethyldithiocarbamate] | 0.78 (≈ 2.08 µM) | 0.78 (≈ 2.08 µM) | 0.39 (≈ 1.04 µM) |

— patent US4076814A, “Preventive and curative compositions against mycoplasmosis” (Sankyo Company Limited, priority 1975, dated 1978)
